Values quoted from earlier work in patent US12121516B2, “Pharmaceutical composition comprising selexipag” (ACTELION PHARMACEUTICALS LTD, priority 2017, dated 2024).

How the values were obtained:
[1] = test system: healthy subjects; conditions: administered orally or by i.v. infusion
[2] = test system: patients with pulmonary arterial hypertension; conditions: phase III, versus placebo

CC(C)N(CCCCOCC(=O)NS(C)(=O)=O)c1cnc(-c2ccccc2)c(-c2ccccc2)n1 [selexipag, 2-{4-[N-(5,6-diphenylpyrazin-2-yl)-N-isopropylamino]butyloxy}-N-(methylsulfonyl)acetamide]
tolerability [1]: generally well tolerated | risk of the primary composite end point of death or a complication related to pulmonary arterial hypertension [2]: significantly lower
